Columns and labels:
[1] = tested on: acute ischemia-reperfusion heart injuries; conditions: cited from earlier work
[2] = large amount, certain condition in vitro; cited from earlier work
[3] = tested on: Diabetic cardiomyopathy (DCM) rats; assay: Streptozotocin-induced diabetic cardiomyopathy; format: in vivo, Wistar rats; conditions: STZ diabetes, 12-16 weeks; for cardiac function comparing to group B: pressure-volume system
Experimental: Diabetic cardiomyopathy (DCM) Diabetic induced injury to the myocardium. DCM, induced by streptozotocin (STZ), along with the associated changes occurring in inflammation, oxidative stress and fibrosis markers. Wistar rats were randomly divided into four groups: group A (Normal control), group B (Diabetes), group […] group D (DM/TMZ, trimetazidine treatment). After 12-16 weeks, left ventricular function was measured by the pressure-volume system. Cardiac tissues were prepared for histological study by hematoxlyin and eosin, Sirius red staining as well as for assays of oxidative stress. Oxidative stress, inflammation, and fibrosis markers were evaluated by molecular biological techniques. All data were measured morphometrically and statistically analyzed.

[4] = Solubility of compound A sodium; format: physicochemical
Description: Only organic solvent which are already approved by FDA for i.v. administration were used for increasing solubility of compound A. After extensive screening of several solvents, the invention disclosed an optimized solvent system for compound A, which composed of saline at pH 10.0, 25% of ethanol and 20% of propylene glycol (2%, w/w) (compound A sodium).

cGMP = cGMP ELISA in neonatal rat fibroblasts; format: cell-based; conditions: 3 h
Experimental: Neonatal rat cardiac fibroblasts were isolated from 1-2-day-old Sprague-Dawley rats as described previously. Briefly, hearts from newborn 1-2-day-old Sprague-Dawley rats were minced on ice, and cells were isolated by trypsin incubation at 37° C. Non-cardiomyocytes were separated from the cardiomyocytes by differential pre-plating, and then cardiomyocytes were removed with fibroblasts seeded in culture dishes. The cells were passaged after 3 days, using a 0.05% trypsin solution. Cells were cultured in DEME/F12 medium with 5% fetal calf serum, and maintained at 37° C., 5% CO2 condition. cGMP levels in the neonatal rat fibroblasts after treated with vehicle or compound A or sildenafil were measured with an ELISA kit following the manufacture's instruction. Quiescent cells were cultured with different doses of compound A ([…]) or sildenafil ([…]) for 3 h. After treatment, the cells were lysed with 0.1N HCl, and performed cGMP ELISA assay.

For `C=C1C[C@@]23CC[C@H]4[C@@](C)(CCC[C@@]4(C)C(=O)O)[C@@H]2CC[C@]1(O)C3` (single isomer, unassigned; ent-13) [Compound B, ent-13-hydroxykaur-16-en-18-oic acid], the “cardioprotective effect and arrhythmia” value [1] is given as “cardioprotective effect” and the mutagenicity [2] is given as “may be mutagenic”.
For `COc1ccc(CN2CCNCC2)c(OC)c1OC` [TMZ, trimetazidine, reference compound], the “blood glucose level and insulin levels comparing to Diabetes group” value [3] was “no significant changes”, the cardiac hypertrophy [3] was “significant inhibited” and the “cardiac function comparing to group B” value [3] was “significantly improved”.
In the case of `CC12CCC3C(CCC4C(C)(C(=O)[O-])CCCC34C)(CC1=O)C2.[Na+]` (stereo not shown) [Compound A-1Na], the “solubility of sodium salt relative to compound A” value [4] is reported as “better solubility”, the Stimulated production of cGMP (cGMP; 1 um) is reported as 157 ± 43% and the Stimulated production of cGMP (cGMP; 10 um) is reported as 207 ± 54%. The “blood glucose level and insulin levels comparing to Diabetes group” value [3] was “no significant changes” and the “cardiac function comparing to group B” value [3] was “significantly improved”.
